Reference: patent publication US12156860B2, “Disorders implicating PUFA oxidation” (BioJiva LLC, priority 2011, dated 2024)

How the values were obtained:
Q-less coq3 yeast = assay: Yeast incubated with different ratios of H- and D-PUFA, plate dilution; assay type: cell-based, S. cerevisiae; settings: after 3 hours of treatment, data not shown
Procedure: FIG. 9. […] Wild-type, yeast Q-less coq3, or respiratory deficient cor1 null mutants were incubated in the presence of 200 μM of LA and D2-LA at different ratios of PUFAs. Serial dilutions (1:5) starting at 0.2 OD/ml were spotted on YPD solid plate medium. A zero-time untreated control is shown on the top left. Growth at 30° C.
FIG. 10. […] Serial dilutions (1:5) starting at 0.2 OD/ml were spotted on YPD solid plate medium. Growth at 30° C.
Wild-type, yeast Q-less coq3, or respiratory deficient cor1 null mutants were incubated in the presence of 200 μM of LA and D2-LA at different ratios of PUFAs, as indicated in FIG. 9. Serial dilutions (1:5) starting at 0.2 OD/ml were spotted on YPD solid plate medium. […] Growth was at 30° C.
Serial dilutions (1:5) starting at 0.2 OD/ml were spotted on YPD solid plate medium. Growth was at 30° C.

[1] = system: coq null mutants (Q-less yeast); settings: for protection in the yeast model: compared with D4-linolenic acid; for viability of coq null mutants after fatty acid treatment: 200 μM fatty acid, plate dilution / colony assay
Procedure: FIG. 3. […] Yeast coq3, coq7 and coq9 null mutants were prepared in the W303 yeast genetic background (WT). Yeast strains were grown in YPD medium (1% Bacto-yeast extract, 2% Bacto-peptone, 2% dextrose) and harvested while in log phase growth (OD600 nm=0.1-1.0). Cells were washed twice with sterile water and resuspended in phosphate buffer (0.10 M sodium phosphate, pH 6.2, 0.2% dextrose) to an OD600 nm=0.2. Samples were removed and 1:5 serial dilutions starting at 0.20 OD/ml were plated on YPD plate medium, to provide a zero time untreated control (shown in top left panel). The designated fatty acids were added to 200 μM final concentration to 20 ml of yeast in phosphate buffer. At 2 h, 4 h, and 16 h samples were removed, 1:5 serial dilutions prepared, and spotted onto YPD plate medium. Pictures were taken after 2 days of growth at 30° C.
FIG. 4. […] The fatty acid sensitive assay was performed as described in FIG. 3, except that 100 μl aliquots were removed at 1, 2, and 4 h and, following dilution, spread onto YPD plates. Pictures were taken after 2 to 2.5 days, and the number of colonies counted. Yeast strains include Wild type (circles), atp2 (triangles), or coq3 (squares); Fatty acid treatments include oleic C18:1 (solid line), linolenic, C18:3, n-3 (dashed line) or 11,11,14,14-D4-linolenic, C18:3, n-3, (dotted line).
Q-less yeast (coq mutants) provide an ideal system to assess in vivo autoxidation of fatty acids. Coenzyme Q (ubiquinone or Q) serves as a small lipophilic antioxidant as well as an electron shuttle in the respiratory chain of the mitochondrial inner membrane. Ten S. cerevisiae genes (COQ1-COQ10) are required for coenzyme Q biosynthesis and function, and the deletion of any results in respiratory deficiency (Tran U C, Clarke C F. Mitochondrion 2007; 7S, 562).
A plate dilution assay can be used to assess PUFA sensitivity. This assay can be performed by spotting serial five-fold dilutions of aliquots onto YPD plate media (FIG. 3). The sensitivity of the different strains can be observed by visual inspection of the density of cells in each spot.

NASH (MCD diet) rats = assay: NASH induced by methionine and choline deficient diet; assay type: in vivo, Rattus norvegicus, Wistar; settings: daily over three months
Procedure: (§1) Fifty male heterozygous rats, 45-days-old, from the Rattus norvegicus species and Wistar lineage are kept in polypropylene cages, in groups of five animals, under a 12 h-clear/dark cycle and under controlled temperature conditions. The induction of NASH is carried out through a diet deficient in methionine and choline (MCD) according to known procedures (See Rogers A E, Newberne P M. Alcoholic and nutritional fatty liver and cirrhosis. Am J Pathol. 1973; 73:817-20). […] During the study period, the animals are weighed on a weekly basis and the drugs dose is readjusted as necessary. On the first day of the study, besides determining the animals' weight, their blood is collected through retro-orbital plexus puncture for biochemical analysis: alanine-aminotransferase (ALT) and aspartate-aminotransferase (AST) (colorimetric test, using the Labtest kit). One day after concluding the induction period and compound administration (90 days), animals are sacrificed by decapitation. Once more, each animal's blood is collected for biochemical analysis. Then, laparotomy with total hepatectomy and liver preparation are carried out for lipoperoxidation (LPO) and histological analysis. Liver tissue samples are analyzed using the thiobarbituric-acid reactant substance (TBARS) measurement according to known methods (See Lowry et al. Protein measurement with the folin phenol reagent. J Biol Chem. 1951; 193:265-75) and the results are expressed in nmol of malondialdehyde/mg of protein. Slides with liver fragments are also dyed with hematoxilin-eosine and picrosirius, in order to evaluate the fibrosis level, and with Perls to evaluate the presence of iron stores, having been examined by an only pathologist blinded to the animals' data. The minimum histological criterion for NASH diagnosis is the presence of hepatocellular ballooning-related steatosis, involving zone 3 and lobular inflammatory infiltrate. Mallory corpuscles and sinusoidal fibrosis, involving zone 3 might be present or not. The graduation of both necroinflammatory and fibrosis activity is carried out according to known classifications (See Brunt E M, Janney C G, Di Bisceglie A M, Neuschwander-Tetri B A, Bacon B R. Nonalcoholic steatohepatitis: a proposal for grading and staging the histological lesions. Am J Gastroenterol. 1999; 94:2467-74).

rat hearts = assay: Langendorf isolated heart perfusion model, echo- and electrocardiography; assay type: in vivo; settings: rats, 8 weeks supplementation
Procedure: Test compounds disclosed herein can also be assessed using the Langendorf isolated heart perfusion model. […] Following the treatment period, rat hearts are analyzed by echocardiography for measurement of muscle thickness of the left ventricle, left atrium, right ventricle, and right atrium and electrocardiography for measuring electrical activity. After live evaluation, rats are humanely sacrificed and their hearts isolated and connected to the Langendorf isolated perfusion system (See Jennings et al., Am. Surg. 2004; 70(9), 797-800). Left ventricular pressure is then measured with a left ventricular balloon. Coronary flow is also measured. Cardiac function is further assessed by determining the effect of administration of test compounds on the rate of contraction and relaxation of the heart. To determine whether any observed effects on cardiac function are due to the effect of the test compound on mitochondrial function, mitochondrial activity pre-ischemia and post-ischemia is assessed for each of the treatment groups.

[2] = system: stroke-prone spontaneously hypertensive (SHRSP) rat; assay: SHRSP rat model of hypertension; assay type: in vivo; settings: SHRSP rats, 8 weeks
Excerpt: The stroke-prone spontaneously hypertensive (SHRSP) rat model of hypertension, which has been previously described (McIntyre et al., 1997 Hypertension 30:1517; Alexander et al., 1999 Cardiovasc. Res. 43:798; Fennell et al., 2002 Gene Ther. 9:110), can be used for the assessment of a compound's ability to mitigate hypertension.

[3] = system: alcoholic liver disease rats; assay: Alcoholic liver disease and cirrhosis induced by 5% ethanol diet; assay type: in vivo, Rattus norvegicus, Wistar; settings: 5% ethanol diet rats, daily over three months
Procedure: as §1, with “alcoholic liver disease and cirrhosis” for “NASH”, “containing 5% ethanol […].” for “deficient in methionine and choline (MCD) according to known procedures (See Rogers A E, Newberne P M. Alcoholic and nutritional fatty liver and cirrhosis. Am J Pathol. 1973; 73:817-20).”, “days), the” for “days),”, “data.” for “data. The minimum histological criterion for NASH diagnosis is the presence of hepatocellular ballooning-related steatosis, involving zone 3 and lobular inflammatory infiltrate. Mallory corpuscles and sinusoidal fibrosis, involving zone 3 might be present or not. The graduation of both necroinflammatory and fibrosis activity is carried out according to known classifications (See Brunt E M, Janney C G, Di Bisceglie A M, Neuschwander-Tetri B A, Bacon B R. Nonalcoholic steatohepatitis: a proposal for grading and staging the histological lesions. Am J Gastroenterol. 1999; 94:2467-74).”

WT (W303) yeast = settings: 200 μM, 4 h incubation
Procedure: Uptake of exogenously supplied fatty acids by yeast. WT (W303) yeast were harvested at log phase and incubated in the presence of 200 μM of the designated fatty acid for either 0 or 4 h.
Wild-type yeast were harvested during log phase growth and incubated in the presence of exogenously added fatty acid (for 0 or 4 h) in the presence of phosphate buffer plus 0.20% dextrose, as described for the fatty acid sensitivity assay. Cells were harvested, washed twice with 10 ml sterile water, and the yeast cell pellets were then processed by alkaline methanolysis as described above. The fatty acids are detected as methylesters (FAMEs) following GC-MS with C17:0 added as an internal standard (FIG. 6).

[4] = Kinetics of O2 consumption during AMVN-initiated oxidation in chlorobenzene (glass capillary microvolumeter); assay type: physicochemical
Procedure: FIG. 7. Kinetics of O2 consumption accompanied the oxidation of 0.71 M LA (plots 1 and 2) and 0.71 M D2-LA (plot 3) in chlorobenzene initiated by 40 mM AMVN at 37° C. Plot 2-0.23 mM HPMC was added to 0.71 M LA.
The kinetics of oxygen consumption during the oxidation of LA and D2-LA was studied with a glass capillary microvolumeter (FIG. 7). The rate of oxidation, ROX, was measured as a slope of [O2] traces. The rate of initiation, RIN, was determined by the inhibitor method with HPMC (“6-hydroxy-2,2,5,7,8-pentamethylbenzochroman”) as a reference inhibitor. RIN was calculated from the induction period of inhibited oxidation, tIND: RIN=2·[HPMC]/tIND. […] When the process was inhibited by 0.23 mM chain-breaking antioxidant HPMC, the duration of the induction period, tIND, was about 48 min, with the RIN value of around 0.16×10^−6 M/s. […] The latter precludes a direct determination of RIN. […] An estimated kinetic isotope effect (“KIE”), from comparison of ROX for LA and D2-LA, was around 6.1×10^−6/0.18×10^−6≈35. A similar KIE was determined during the oxidation of LA and 11,11-d2-LA in Triton X-100 aqueous micelles (data not shown). For comparative purposes, the theoretical KIE is 6.9 at 25° C. See Carpenter, “Determination of Organic Reaction Mechanisms” (John Wiley & Sons, 1984), p. 89.

[5] = system: coq null mutants (Q-less yeast); settings: cited from earlier work; for sensitivity of Q-less yeast to fatty acid treatment: compared with wild-type parental strain
[6] = cited from earlier work
[7] = system: wild-type (W303-1B) yeast cells; settings: four hour treatment; cited from earlier work

Question: For `[2H]C(/C=C\CCCCC)/C=C\CCCCCCCC(=O)O` (stereo not shown) [11,11-D,H-LA, [11^−2 H]-linoleic acid], which cell viability (Q-less coq3 yeast) is on record?
Answer: Its cell viability is “no detectable loss in cell viability”.

Question: Which “protection in the yeast model” value [1] does the source give for `[2H]C([2H])(/C=C\C/C=C\CC)C/C=C\CCCCCCC(=O)O` [11, 11-D2-linolenic acid, 11,11-Dideutero-cis,cis,cis-octadeca-8,12,15-trienoic acid] here?
Answer: The value was “comparable protection”.

Question: Which “protection in the yeast model” value [1] does the source give for `[2H]C([2H])(/C=C\CC)/C=C\CC/C=C\CCCCCCC(=O)O` [14, 14-D2-linolenic acid, 14,14-Dideutero-cis,cis,cis-octadeca-8,12,15-trienoic acid] here?
Answer: Its value is “comparable protection”.

Question: For `[2H]C([2H])(/C=C\CC)/C=C\C([2H])([2H])/C=C\CCCCCCCC(=O)O` [D4-linolenic acid, 11,11,14,14-Tetradeutero-cis,cis,cis-9,12,15-Octadecatrienoic acid], which “amount of MDA in liver samples (TBARS)” value (NASH (MCD diet) rats) is on record?
Answer: Its value is “reduce the amount of MDA found in liver samples”.

Question: And the “histological signs of NASH” value (NASH (MCD diet) rats)?
Answer: The value was “reverse the histological signs of NASH”.

Question: What about the “symptoms and markers associated with cardiac disorders” value (rat hearts) of the same molecule?
Answer: Its value is “reduce symptoms and markers associated with cardiac disorders”.

Question: What about the systolic blood pressure [2] of the same molecule?
Answer: The systolic blood pressure was “reduction in systolic blood pressure”.

Question: And the “viability of coq null mutants after fatty acid treatment” value [1]?
Answer: Its value is “resistant to PUFA-mediated cell killing”.

Question: And the “viability of cells compared with oleic acid treatment” value ([1]; quantitative colony counting (FIG. 4))?
Answer: Its value is “similar”.

Question: And the “amount of MDA in liver samples (TBARS)” value [3]?
Answer: Its value is “reduce the amount of MDA found in liver samples”.

Question: What about the “histological signs of fatty liver disease” value [3] of the same molecule?
Answer: The value was “reverse the histological signs of fatty liver disease”.

Question: And the “incorporation of fatty acid by yeast” value (WT (W303) yeast)?
Answer: The value was “avidly incorporate”.

Question: Which results are given for `CCCCC/C=C\C/C=C\CCCCCCCC(=O)O` [LA, cis,cis-9,12-Octadecadienoic acid, reference compound]?
Answer: rate of oxidation, ROX ([4]; 0.71 M in chlorobenzene, 40 mM AMVN, 37° C.): 6.1e-06 M/s; length of the kinetic chain, ROX/RIN ([4]; for D2-LA assuming RIN comparable to that of LA): 38±3; oxidizability ([4]; n=5): 0.0215±0.008 M^−0.5 s^−0.5

Question: For `CCCCC/C=C\C/C=C\C/C=C\C/C=C\CCCC(=O)O` [arachidonic acid], which “sensitivity of Q-less yeast to fatty acid treatment” value [5] is on record?
Answer: Its value is “hypersensitive”.

Question: With `[2H]O[2H]` [heavy water, D2O] as the molecule, how does the “amount a 70 kg person might drink without serious consequences” value [6] read?
Answer: The value was 4.8 L.

Question: Which “wild-type cells remaining viable” value [7] does the source give for `CC/C=C\C/C=C\C/C=C\CCCCCCCC(=O)O` [linolenic acid, cis,cis,cis-9,12,15-Octadecatrienoic acid, reference compound] here?
Answer: The value was 70%.

Question: And the “viable Q-less (coq2, coq3, and coq5) yeast mutants” value ([5]; following a four hour treatment)?
Answer: The value was “Less than 1%”.

Question: What about the “viability of coq null mutants after fatty acid treatment” value [1] of the same molecule?
Answer: Its value is “dramatic loss of viability”.

Question: What about the “incorporation of fatty acid by yeast” value (WT (W303) yeast) of the same molecule?
Answer: The value was “avidly incorporate”.

Question: For `CCCCCCCC/C=C\CCCCCCCC(=O)O` [oleic acid], which “sensitivity of Q-less yeast to fatty acid treatment” value [5] is on record?
Answer: Its value is “behave the same as the wild-type parental strain”.
